Reference: patent publication US20260274892A1, “MACROCYCLIC BROAD SPECTRUM ANTIBIOTICS” (RQx Pharmaceuticals, Inc., priority 2017, published 2026)

Legend:
[1] = system: Methicillin Resistant Staphylococcus aureus strain USA 200; assay: Minimum inhibitory concentration (MIC), CLSI broth micro-dilution, S. aureus; format: cell-based; conditions: Staphylococcus aureus, MRSA / USA200, MRSA USA 200, cation adjusted Mueller Hinton Broth + 0.002% Tween-80, 35° C., 22 hours
Summary of the method: (§1)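 Antibacterial potency is measured as MIC by the CLSI broth dilution method. Bacteria at OD600 0.0005 in Tween-80-supplemented cation-adjusted Mueller Hinton broth face ten twofold compound dilutions for 22 h at 35° C.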

[2] = system: Escherichia coli ATCC 25922; assay: Minimum inhibitory concentration (MIC), CLSI broth micro-dilution, E. coli; format: cell-based; conditions: Escherichia coli, ATCC25922, 22 h
Summary of the method: as §1

[3] = Table 6, cation adjusted Mueller Hinton Broth + 0.002% Tween-80, 35° C.

MIC ([1]; Table 6) [µM] | MIC [2, 3] [µM] | SMILES | MIC ([1]; Table 8) [µM] | MIC ([2]; Table 8, cation adjusted Mueller Hinton Broth + 0.002% Tween-80, 35° C.) [µM]
0.0061 | 0.097 | CCCCCc1ccc(-c2nc(C)c(C(=O)N[C@@H](CCN)C(=O)N(C)[C@@H]3C(=O)N[C@@H](C)C(=O)N[C@H](C(=O)NCC#N)Cc4ccc(OCCN)c(c4)-c4cc3ccc4OCCN)c(C)n2)cc1 (racemic) [Compound 513, rac-(8S,11S,14S)-3,18-bis(2-aminoethoxy)-N-(cyanomethyl)-11-methyl-14-[methyl-[rac-(2S)-4-amino-2-[[4,6-dimethyl-2-(4-pentylphenyl)pyrimidine-5-carbonyl]amino]butanoyl]amino]-10,13-dioxo-9,12-diazatricyclo[13.3.1.12,6]icosa-1(18),2(20),3,5,15(19),16-hexaene-8-carboxamide] |  | 
0.031 | 0.13 | Cc1nc(-c2ccc(N3CCCCCCC3)cc2)nc(C)c1C(=O)N[C@@H](CCN)C(=O)N(C)[C@@H]1C(=O)N[C@@H](C)C(=O)N[C@H](C(=O)NCC#N)Cc2ccc(OCCN)c(c2)-c2cc1ccc2OCCN (racemic) [Compound 326, rac-(8S,11S,14S)-3,18-bis(2-aminoethoxy)-N-(cyanomethyl)-11-methyl-14-[methyl-[rac-(2S)-4-amino-2-[[2-[4-(azocan-1-yl)phenyl]-4,6-dimethyl-pyrimidine-5-carbonyl]amino]butanoyl]amino]-10,13-dioxo-9,12-diazatricyclo[13.3.1.12,6]icosa-1(18),2(20),3,5,15(19),16-hexaene-8-carboxamide] |  | 
0.015 | 0.16 | Cc1nc(-c2cnc(-c3ccc(C(C)(C)C)cc3)nc2)ncc1C(=O)N[C@@H](CCN)C(=O)N(C)[C@@H]1C(=O)N[C@@H](C)C(=O)N[C@H](C(=O)NCC#N)Cc2ccc(OCCN)c(c2)-c2cc1ccc2OCCN (racemic) [Compound 232, rac-(8S,11S,14S)-3,18-bis(2-aminoethoxy)-N-(cyanomethyl)-11-methyl-14-[methyl-[rac-(2S)-4-amino-2-[[2-[2-(4-tert-butylphenyl)pyrimidin-5-yl]-4-methyl-pyrimidine-5-carbonyl]amino]butanoyl]amino]-10,13-dioxo-9,12-diazatricyclo[13.3.1.12,6]icosa-1(18),2(20),3,5,15(19),16-hexaene-8-carboxamide] |  | 
0.031 | 0.19 | Cc1cc(-c2ccc(C(C)(C)C)cc2)cc(C)c1C(=O)N[C@@H](CCN)C(=O)N(C)[C@@H]1C(=O)N[C@@H](C)C(=O)N[C@H](C(=O)NCC#N)Cc2ccc(OCCN)c(c2)-c2cc1ccc2OCCN (racemic) [Compound 370, rac-(8S,11S,14S)-3,18-bis(2-aminoethoxy)-N-(cyanomethyl)-11-methyl-14-[methyl-[rac-(2S)-4-amino-2-[[4-(4-tert-butylphenyl)-2,6-dimethyl-benzoyl]amino]butanoyl]amino]-10,13-dioxo-9,12-diazatricyclo[13.3.1.12,6]icosa-1(18),2(20),3,5,15(19),16-hexaene-8-carboxamide] |  | 
1 | 6 | Cc1nc(-c2ccc(OC3CCCCC3)cc2)nc(C)c1C(=O)N[C@H](CO)C(=O)N(C)[C@@H]1C(=O)N[C@@H](C)C(=O)N[C@H](C(=O)NCC#N)Cc2ccc(OCCN)c(c2)-c2cc1ccc2OCCN [Compound 508, (8S,11S,14S)-3,18-bis(2-aminoethoxy)-N-(cyanomethyl)-14-[[(2R)-2-[[2-[4-(cyclohexoxy)phenyl]-4,6-dimethyl-pyrimidine-5-carbonyl]amino]-3-hydroxy-propanoyl]-methyl-amino]-11-methyl-10,13-dioxo-9,12-diazatricyclo[13.3.1.12,6]icosa-1(18),2(20),3,5,15(19),16-hexaene-8-carboxamide] |  | 
0.055 | 0.21 | Cc1nc(-c2ccc(C(C)(C)C)cc2)nc(C)c1C(=O)N[C@@H](CCN)C(=O)N(C)[C@@H]1C(=O)N[C@@H](C)C(=O)N[C@H](C(=O)NCC#N)Cc2ccc(OCCN)c(c2)-c2cc1ccc2O (racemic) [Compound 553, rac-(8S,11S,14S)-3-(2-aminoethoxy)-N-(cyanomethyl)-18-hydroxy-11-methyl-14-[methyl-[rac-(2S)-4-amino-2-[[2-(4-tert-butylphenyl)-4,6-dimethyl-pyrimidine-5-carbonyl]amino]butanoyl]amino]-10,13-dioxo-9,12-diazatricyclo[13.3.1.12,6]icosa-1(18),2(20),3,5,15(19),16-hexaene-8-carboxamide] |  | 
 |  | CCCCCOc1ccc(-c2nc(C)c(C(=O)N[C@@H](CCN)C(=O)N(C)[C@@H]3C(=O)N[C@@H](C)C(=O)N[C@H](C(=O)O)Cc4ccc(O)c(c4)-c4cc3ccc4OCCN)c(C)n2)cc1 (racemic) [Compound 648, rac-(8S,11S,14S)-18-(2-aminoethoxy)-3-hydroxy-11-methyl-14-[methyl-[rac-(2S)-4-amino-2-[[4,6-dimethyl-2-(4-pentoxyphenyl)pyrimidine-5-carbonyl]amino]butanoyl]amino]-10,13-dioxo-9,12-diazatricyclo [13.3.1.12,6]icosa-1(18),2(20),3,5,15(19), 16-hexaene-8-carboxylic acid] | 0.28 | 0.1
0.0083 | 0.2 | CCCCCCc1ccc2cc(C(=O)N[C@@H](CCN)C(=O)N(C)[C@@H]3C(=O)N[C@@H](C)C(=O)N[C@H](C(=O)NCC#N)Cc4ccc(OCCN)c(c4)-c4cc3ccc4OCCN)c(C)nc2c1 (racemic) [Compound 394, rac-(8S,11S,14S)-3,18-bis(2-aminoethoxy)-N-(cyanomethyl)-11-methyl-14-[methyl-[rac-(2S)-4-amino-2-[(7-hexyl-2-methyl-quinoline-3-carbonyl)amino]butanoyl]amino]-10,13-dioxo-9,12-diazatricyclo[13.3.1.12,6]icosa-1(18),2(20),3,5,15(19),16-hexaene-8-carboxamide] |  | 
0.18 | 3.9 | Cc1nc(-c2ccc(C(C)(C)C)cc2)ncc1C(=O)N[C@@H](CCN)C(=O)N(C)[C@@H]1C(=O)N[C@@H](C)C(=O)N[C@H](C(=O)NCC#N)Cc2ccc(O)c(c2)-c2cc1ccc2O (racemic) [Compound 431, rac-(8S,11S,14S)-N-(cyanomethyl)-3,18-dihydroxy-11-methyl-14-[methyl-[rac-(2S)-4-amino-2-[[2-(4-tert-butylphenyl)-4-methyl-pyrimidine-5-carbonyl]amino]butanoyl]amino]-10,13-dioxo-9,12-diazatricyclo[13.3.1.12,6]icosa-1(18),2(20),3,5,15(19),16-hexaene-8-carboxamide] |  | 
0.13 | 2 | Cc1nc(-c2ccc(C(C)(C)C)cc2)nc(O)c1C(=O)N[C@@H](CCN)C(=O)N(C)[C@@H]1C(=O)N[C@@H](C)C(=O)N[C@H](C(=O)NCC#N)Cc2ccc(OCCN)c(c2)-c2cc1ccc2OCCN (racemic) [Compound 423, rac-(8S,11S,14S)-3,18-bis(2-aminoethoxy)-N-(cyanomethyl)-11-methyl-14-[methyl-[rac-(2S)-4-amino-2-[[2-(4-tert-butylphenyl)-4-hydroxy-6-methyl-pyrimidine-5-carbonyl]amino]butanoyl]amino]-10,13-dioxo-9,12-diazatricyclo[13.3.1.12,6]icosa-1(18),2(20),3,5,15(19),16-hexaene-8-carboxamide] |  | 
0.0062 | 0.099 | Cc1nc(-c2ccc(CCC(C)C)cc2)ncc1C(=O)N[C@@H](CCN)C(=O)N(C)[C@@H]1C(=O)N[C@@H](C)C(=O)N[C@H](C(=O)NCC#N)Cc2ccc(OCCN)c(c2)-c2cc1ccc2OCCN (racemic) [Compound 220, rac-(8S,11S,14S)-3,18-bis(2-aminoethoxy)-N-(cyanomethyl)-11-methyl-14-[methyl-[rac-(2S)-4-amino-2-[[2-(4-isopentylphenyl)-4-methyl-pyrimidine-5-carbonyl]amino]butanoyl]amino]-10,13-dioxo-9,12-diazatricyclo[13.3.1.12,6]icosa-1(18),2(20),3,5,15(19),16-hexaene-8-carboxamide] |  | 
0.046 | 0.73 | COc1ccc2cc1-c1cc(ccc1OCCN)C[C@@H](C(=O)NCC#N)NC(=O)[C@H](C)NC(=O)[C@H]2N(C)C(=O)[C@H](CCN)NC(=O)c1cnc(-c2ccc(C(C)(C)C)cc2)nc1C (racemic) [Compound 558, rac-(8S,11S,14S)-3-(2-aminoethoxy)-N-(cyanomethyl)-18-methoxy-11-methyl-14-[methyl-[rac-(2S)-4-amino-2-[[2-(4-tert-butylphenyl)-4-methyl-pyrimidine-5-carbonyl]amino]butanoyl]amino]-10,13-dioxo-9,12-diazatricyclo[13.3.1.12,6]icosa-1(18),2(20),3,5,15(19),16-hexaene-8-carboxamide] |  | 

SMILES | MIC ([1]; Table 6) [µM] | MIC [2, 3] [µM] | MIC ([1]; Table 8) [µM] | MIC ([2]; Table 8, cation adjusted Mueller Hinton Broth + 0.002% Tween-80, 35° C.) [µM]
CCCCCOc1ccc(-c2nc(C)c(C(=O)N[C@@H](CCN)C(=O)N(C)[C@@H]3C(=O)N[C@@H](C)C(=O)N[C@H](C(=O)NCC#N)Cc4ccc(O)c(c4)-c4cc3ccc4OCCN)c(C)n2)cc1 (racemic) [Compound 518, rac-(8S,11S,14S)-18-(2-aminoethoxy)-N-(cyanomethyl)-3-hydroxy-11-methyl-14-[methyl-[rac-(2S)-4-amino-2-[[4,6-dimethyl-2-(4-pentoxyphenyl)pyrimidine-5-carbonyl]amino]butanoyl]amino]-10,13-dioxo-9,12-diazatricyclo[13.3.1.12,6]icosa-1(18),2(20),3,5,15(19),16-hexaene-8-carboxamide] | 0.028 | 0.16 |  | 
